According to US20230084144A1, “THERAPEUTIC COMBINATIONS OF DRUGS AND METHODS OF USING THEM” (ConSynance Therapeutics, Inc., priority 2020, published 2023):
Values joined by “and” are separate entries in the source; they are usually repeats but may differ in a detail not shown here. Equal entries are not always repeated.

What was measured:
[1] = Stability in human EDTA plasma (LC-MS/MS validation); assay type: in vitro ADME
Procedure: (§1) A LC-MS/MS method was developed and validated for the quantitation of Formula I in 0.250 mL of human EDTA plasma in a total of 7 runs, out of which 1 run was rejected. The method utilized stable labeled Formula I as an internal standard. After the addition of the internal standard (equivalent to 285.4 ng/mL in human EDTA plasma) and 0.250 mL of each quality control (QC) sample and calibration standard, 0.525 mL of methyl t-butyl ether (MTBE) was added to the 96-well sample tubes. The organic layer was removed and evaporated to dryness using a liquid-liquid extraction (LLE). The residue was reconstituted and injected into the LC-MS/MS system. Chromatographic separation was achieved through gradient elution on an Acquity UPLC, BEH Shield RP18™, 50 × 2.1 mm, 1.7 µm particle size column. The mobile phase contained water, acetonitrile, ammonium formate, and formic acid. Detection was accomplished using a Sciex API 4000 tandem mass spectrometer in positive ion electrospray SRM mode. The standard curves, which ranged from 1.00 to 1000 ng/mL for Formula I, were fitted to a ⅟x2 weighted linear regression model. The intra-assay precisions, based on four levels of analytical QCs (low, mid, GM, and high), were within 4.2% CV and inter-assay precisions were within 7.2% CV for the analyte. The assay accuracy, expressed as %DEV, was within 6.4% of the nominal concentration values for the analyte. […] The LLOQ response ratio, when compared to the QC0 response ratio, was ≥ 5 in all matrix lots. The analyte was stable in human EDTA plasma for at least 24 h at room temperature, for at least 14 days at -20° C., and following at least 3 freeze- thaw cycles. The processed samples were stable for 72 hours (h) at room temperature.

[2] = target: T1, Transporter, Norepinephrine (NET) (Homo sapiens, UniProt P23975); experiment: Radioligand binding, Transporter, Norepinephrine (NET) (Eurofin Discovery 204410); settings: 100 nM compound
T1 construct: host or cells: MDCK cells
T1 sequence (P23975 whole entry): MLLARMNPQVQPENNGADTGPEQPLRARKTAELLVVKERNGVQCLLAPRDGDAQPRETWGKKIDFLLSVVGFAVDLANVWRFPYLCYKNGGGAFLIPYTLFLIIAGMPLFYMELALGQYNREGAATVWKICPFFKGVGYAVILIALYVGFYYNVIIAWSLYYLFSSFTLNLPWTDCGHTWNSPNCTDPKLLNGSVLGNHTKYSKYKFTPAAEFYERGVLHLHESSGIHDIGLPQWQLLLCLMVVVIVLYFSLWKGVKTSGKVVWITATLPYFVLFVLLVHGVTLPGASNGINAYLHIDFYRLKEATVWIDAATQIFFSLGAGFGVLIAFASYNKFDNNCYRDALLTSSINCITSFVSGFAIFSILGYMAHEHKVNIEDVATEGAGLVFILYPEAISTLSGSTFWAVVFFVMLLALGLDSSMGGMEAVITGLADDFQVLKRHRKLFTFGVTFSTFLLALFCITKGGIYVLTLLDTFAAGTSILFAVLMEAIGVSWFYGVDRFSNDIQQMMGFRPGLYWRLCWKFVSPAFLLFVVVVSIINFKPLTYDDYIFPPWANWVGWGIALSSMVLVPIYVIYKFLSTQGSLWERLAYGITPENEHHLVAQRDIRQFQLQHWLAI

[3] = Plasma concentrations at midpoint time of post dosing PET scans; assay type: in vivo, human; settings: healthy males
Procedure: as §1
(§2) Striatal receptor occupancy at dopamine transporters (DAT) and serotonin transporters (SERT) with plasma concentrations of Formula I at the midpoint time of the post dosing PET (positron emission tomography) scans (T=4 and 24) after once-a-day multiple doses of 3-60 mg and 10-60 mg for SERT and DAT healthy male cohorts, respectively (Tables below, RO stands for receptor occupancy). Post dosing PET scans were conducted at day 10 (4 h post last dose) and day 14 (24 h post last dose) assuming steady state conditions, using the specific DAT and SERT tracers ^11 C-PE2I and ^11 C-MADAM, respectively. For 45 mg and 60 mg cohorts, there was titration by administration of 30 mg for 3 days and then from day 4 the specified dose. Representative reports on using these two tracers are Learned-Coughlin SM et al, Biol Psychiatry.2003, 54(8):800-5; Jucaite A et al, Eur J Nucl Med Mol Imaging. 2006, 33(6):657-68; and Lundberg J et al, Int J Neuropsychopharmacol. 2007, 10(6):777-85.

[4] = 14-day once-a-day oral multiple ascending dose PK study; assay type: in vivo, human; set-up: AUC: unit not given here
Source text: Tabulated, day-14 PK data (Cmax, Ctrough and AUC) for healthy humans in a 14-day, once-a-day oral dosing, multiple ascending dose study of compound of Formula I.

[5] = target: T2, dopamine transporters (DAT) (Homo sapiens, UniProt Q01959); experiment: PET striatal receptor occupancy at DAT, tracer 11C-PE2I; assay type: in vivo; settings: following multiple doses of 60 mg, PET study in healthy males
T2 construct: from tissue; host or cells: striatum of healthy male volunteers, in vivo PET
T2 sequence (Q01959 whole entry): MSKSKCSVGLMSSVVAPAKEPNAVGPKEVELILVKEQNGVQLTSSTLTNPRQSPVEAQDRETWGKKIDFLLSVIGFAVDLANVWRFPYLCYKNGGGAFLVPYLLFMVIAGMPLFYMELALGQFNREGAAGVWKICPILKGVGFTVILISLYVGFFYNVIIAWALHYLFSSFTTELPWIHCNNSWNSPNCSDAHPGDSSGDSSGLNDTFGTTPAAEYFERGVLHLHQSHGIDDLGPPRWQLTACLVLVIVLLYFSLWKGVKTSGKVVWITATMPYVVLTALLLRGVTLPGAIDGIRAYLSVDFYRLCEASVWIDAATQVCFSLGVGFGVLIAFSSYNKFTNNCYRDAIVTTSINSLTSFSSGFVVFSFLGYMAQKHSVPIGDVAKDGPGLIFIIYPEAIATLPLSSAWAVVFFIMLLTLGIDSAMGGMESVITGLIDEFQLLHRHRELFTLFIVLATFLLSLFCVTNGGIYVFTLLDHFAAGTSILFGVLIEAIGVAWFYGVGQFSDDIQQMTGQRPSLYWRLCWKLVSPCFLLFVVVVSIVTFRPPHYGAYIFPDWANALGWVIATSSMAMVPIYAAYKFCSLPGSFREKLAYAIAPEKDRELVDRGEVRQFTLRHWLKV
Source text: (§3) The PET study was a part of a strategy in previous clinical development of the compound of formula I to evaluate in healthy male volunteers with respect to safety, tolerability and pharmacokinetics as well as DAT and SERT occupancy.
(§4) The relationship between plasma the compound of formula I concentration and SERT occupancies, using the individual values, is presented in FIG. 8 and FIG. 9. The numeric values for the individual SERT and […] occupancy and the corresponding plasma concentrations are tabulated in Example 12.
as §2, with “Representative reports on using these two tracers are Learned-Coughlin SM et al, Biol Psychiatry.2003, 54(8):800-5; Jucaite A et al, Eur J Nucl Med Mol Imaging. 2006, 33(6):657-68; and Lundberg J et al, Int J Neuropsychopharmacol. 2007, 10(6):777-85.” left out

[6] = target: T3, serotonin transporters (SERT) (Homo sapiens, UniProt P31645); experiment: PET receptor occupancy at SERT, tracer 11C-MADAM; assay type: in vivo; settings: for SERT RO%: healthy males
T3 construct: from tissue; host or cells: brain (striatum, thalamus) of healthy male volunteers, in vivo PET
T3 sequence (P31645 whole entry): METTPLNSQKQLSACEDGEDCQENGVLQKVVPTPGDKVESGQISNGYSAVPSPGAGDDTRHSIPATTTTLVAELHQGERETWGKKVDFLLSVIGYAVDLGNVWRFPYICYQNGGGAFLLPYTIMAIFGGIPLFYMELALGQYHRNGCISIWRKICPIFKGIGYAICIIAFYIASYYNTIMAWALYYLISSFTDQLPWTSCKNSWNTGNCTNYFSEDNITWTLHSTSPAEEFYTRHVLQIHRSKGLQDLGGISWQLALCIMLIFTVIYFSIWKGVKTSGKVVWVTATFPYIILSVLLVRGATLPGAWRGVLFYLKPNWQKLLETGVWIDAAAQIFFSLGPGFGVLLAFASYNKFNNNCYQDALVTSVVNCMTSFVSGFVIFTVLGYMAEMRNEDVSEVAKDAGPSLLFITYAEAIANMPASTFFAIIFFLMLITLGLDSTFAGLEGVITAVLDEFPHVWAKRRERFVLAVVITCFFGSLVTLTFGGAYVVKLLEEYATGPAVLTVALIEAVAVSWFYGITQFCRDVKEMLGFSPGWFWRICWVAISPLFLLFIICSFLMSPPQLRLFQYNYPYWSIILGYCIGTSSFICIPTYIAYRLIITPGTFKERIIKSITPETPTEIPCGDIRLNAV
Source text: as §3, §4, §2

[7] = target: T4, Transporter, Dopamine (DAT) (Homo sapiens, UniProt Q01959); experiment: Radioligand binding, Transporter, Dopamine (DAT) (Eurofin Discovery 220320); settings: 100 nM compound
T4 construct: host or cells: CHO-S cells
T4 sequence (Q01959 whole entry): as the sequence (Q01959 whole entry) above

[8] = Population PK model (3-compartment) on human PK data; settings: healthy volunteers, 3-compartment population PK model
Source text: In alternative embodiments, provided are pharmacokinetic modeling and simulation methods for Formula I, comprising using human PK data, as described sequentially in FIG. 25 to FIG. 29. A 3-compartment model best described the human PK data. Between-patient variability in healthy volunteers were 20.2%.

In the case of `Clc1ccc(C2CNCc3cc(-c4ccc5ncnn5c4)ccc32)cc1Cl` (stereo not drawn) [Formula I, 7-([1,2,4]triazolo[1,5-a]pyridin-6-yl)-4-(3,4-dichlorophenyl)-1,2,3,4-tetrahydroisoquinoline], the “stable in human EDTA plasma following freeze-thaw cycles” value [1] is reported as “at least 3 freeze- thaw cycles”, the “stable in human EDTA plasma at -20° C.” value ([1]; -20° C.) is reported as “at least 14 days” and the “processed samples stable at room temperature” value ([1]; processed (extracted) samples, room temperature) is reported as 72 h. The “stable in human EDTA plasma at room temperature” value ([1]; room temperature) was “at least 24 h”, the inhibition at 0.1 µM [2] was 84% and the “Formula I plasma concentration” value ([3]; DAT cohort, 10 mg once-a-day, day 10, 4 h) was 214 ng/mL and 173 ng/mL. For the same compound, the “Formula I plasma concentration” value ([3]; DAT cohort, 10 mg once-a-day, day 14, 24 h) was 149 ng/mL and 147 ng/mL, the “Formula I plasma concentration” value ([3]; DAT cohort, 45 mg once-a-day, day 10, 4 h) was 924 ng/mL and 905 ng/mL and the “Formula I plasma concentration” value ([3]; DAT cohort, 45 mg once-a-day, day 14, 24 h) was 668 ng/mL and 673 ng/mL. For the same compound, the “Formula I plasma concentration” value ([3]; DAT cohort, 60 mg once-a-day, day 10, 4 h) was 1263 ng/mL, the “Formula I plasma concentration” value ([3]; DAT cohort, 60 mg once-a-day, day 14, 24 h) was 991 ng/mL and the “Formula I plasma concentration” value ([3]; SERT cohort, 3 mg once-a-day, day 10, 4 h) was 64 ng/mL and 63 ng/mL. The “Formula I plasma concentration” value ([3]; SERT cohort, 3 mg once-a-day, day 14, 24 h) was 45 ng/mL and 42 ng/mL, the “Formula I plasma concentration” value ([3]; SERT cohort, 10 mg once-a-day, day 10, 4 h) was 184 ng/mL and 212 ng/mL and the “Formula I plasma concentration” value ([3]; SERT cohort, 10 mg once-a-day, day 14, 24 h) was 129 ng/mL and 156 ng/mL. The “Formula I plasma concentration” value ([3]; SERT cohort, 30 mg once-a-day, day 10, 4 h) was 847 ng/mL and 667 ng/mL, the “Formula I plasma concentration” value ([3]; SERT cohort, 30 mg once-a-day, day 14, 24 h) was 434 ng/mL and 567 ng/mL and the “Formula I plasma concentration” value ([3]; SERT cohort, 45 mg once-a-day, day 10, 4 h) was 1191 ng/mL and 1105 ng/mL. For the same compound, the “Formula I plasma concentration” value ([3]; SERT cohort, 45 mg once-a-day, day 14, 24 h) was 904 ng/mL and 895 ng/mL, the “Formula I plasma concentration (ng/ml), Cmax” value ([4]; healthy person alpha, 3 mg daily oral, day 14, Cmax (blood draw 1-3 h)) was 64 ng/mL and 67 ng/mL and 63 ng/mL and 77 ng/mL and 74 ng/mL and the “Formula I plasma concentration” value ([4]; healthy person alpha, 3 mg daily oral, day 14, blood draw 0 h) was 36 ng/mL and 40 ng/mL and 31 ng/mL and 51 ng/mL and 44 ng/mL. The “Formula I plasma concentration” value ([4]; healthy person alpha, 3 mg daily oral, day 14, blood draw about 23-24 h) was 38 ng/mL and 42 ng/mL and 34 ng/mL and 48 ng/mL and 50 ng/mL, the AUC ([4]; healthy person alpha, 3 mg daily oral, day 14, printed in row of 23-24 h blood draw) was 369 and 414 and 338 and 525 and 439 and 374 and the “Formula I plasma concentration (ng/ml), Cmax” value ([4]; healthy person alpha, 10 mg daily oral, day 14, Cmax (blood draw 1-3 h)) was 249 ng/mL and 243 ng/mL and 285 ng/mL and 259 ng/mL and 242 ng/mL. For the same compound, the “Formula I plasma concentration” value ([4]; healthy person alpha, 10 mg daily oral, day 14, blood draw 0 h) was 127 ng/mL and 134 ng/mL and 183 ng/mL and 155 ng/mL and 147 ng/mL, the “Formula I plasma concentration” value ([4]; healthy person alpha, 10 mg daily oral, day 14, blood draw about 23-24 h) was 130 ng/mL and 140 ng/mL and 138 ng/mL and 178 ng/mL and 160 ng/mL and 162 ng/mL and the AUC ([4]; healthy person alpha, 10 mg daily oral, day 14, printed in row of 23-24 h blood draw) was 1263 and 1447 and 1302 and 1925 and 1884 and 1985. The “Formula I plasma concentration (ng/ml), Cmax” value ([4]; healthy person alpha, 45 mg daily oral, day 14, Cmax (blood draw 1-2 h)) was 1570 ng/mL and 1394 ng/mL and 1579 ng/mL and 1348 ng/mL and 1808 ng/mL, the “Formula I plasma concentration” value ([4]; healthy person alpha, 45 mg daily oral, day 14, blood draw 0 h) was 866 ng/mL and 695 ng/mL and 862 ng/mL and 791 ng/mL and 957 ng/mL and the “Formula I plasma concentration” value ([4]; healthy person alpha, 45 mg daily oral, day 14, blood draw 23 h) was 890 ng/mL and 693 ng/mL and 941 ng/mL and 779 ng/mL and 924 ng/mL. For the same compound, the AUC ([4]; healthy person alpha, 45 mg daily oral, day 14, printed in row of 23 h blood draw) was 6276 and 8418 and 6879 and 8712 and 8687 and 9833, the “Formula I plasma concentration (ng/ml), Cmax” value ([4]; healthy person beta, 45 mg daily oral, day 14, Cmax (blood draw 1-3 h)) was 1465 ng/mL and 1198 ng/mL and 1313 ng/mL and 1713 ng/mL and 2112 ng/mL and the “Formula I plasma concentration” value ([4]; healthy person beta, 45 mg daily oral, day 14, blood draw 0 h) was 832 ng/mL and 732 ng/mL and 714 ng/mL and 973 ng/mL and 1274 ng/mL. The “Formula I plasma concentration” value ([4]; healthy person beta, 45 mg daily oral, day 14, blood draw about 24 h) was 929 ng/mL and 649 ng/mL and 749 ng/mL and 1033 ng/mL and 1249 ng/mL, the AUC ([4]; healthy person beta, 45 mg daily oral, day 14, printed in row of 24 h blood draw) was 10113 and 9936 and 6959 and 8066 and 11276 and 12977 and the DAT occupancies [5] was at most 60%. The DAT occupancies ([5]; listed as formula I) was “up to 60%”, the “SERT RO%” value ([6]; 10 mg once-a-day, day 10, 4 h post last dose) was 53% and 52% and the “SERT RO%” value ([6]; 10 mg once-a-day, day 14, 24 h post last dose) was 47% and 48% and 51%. The “SERT RO%” value ([6]; 30 mg once-a-day, day 10, 4 h post last dose) was 71% and 72% and 74%, the “SERT RO%” value ([6]; 30 mg once-a-day, day 14, 24 h post last dose) was 69% and 66% and 67% and the “SERT RO%” value ([6]; 45 mg once-a-day, day 10, 4 h post last dose) was 73% and 74% and 75%. For the same compound, the “SERT RO%” value ([6]; 45 mg once-a-day, day 14, 24 h post last dose) was 73% and 75% and 78%, the “SERT RO%” value ([6]; 60 mg once-a-day, day 10, 4 h post last dose) was 70% and 61% and 76% and the “SERT RO%” value ([6]; 60 mg once-a-day, day 14, 24 h post last dose) was 76% and 72% and 77%. The SERT occupancy ([6]; multiple doses of 30-60 mg at steady state, healthy male volunteers) was 65-75%, the inhibition at 0.1 µM [7] was 92% and the Between-patient variability [8] was 20.2%.
